From patent US20260262643A1, “HERBICIDAL BENZOXAZINES” (FMC CORPORATION, priority 2022, published 2026)

What was measured:
[1] = tested on: blackgrass; assay: Test A preemergence; type: in vivo, Alopecurus myosuroides
Method in brief: (§1)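 Seeds in loam–sand blend received a directed preemergence soil spray of compound in non-phytotoxic solvent with surfactant; postemergence plants (2–10 cm, one- to two-leaf stage) were sprayed with the same formulation. After 10 days in greenhouse, injury was rated visually versus untreated controls, 0 (no effect) to 100 (complete control).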

[2] = tested on: corn; assay: Test A preemergence; type: in vivo, Zea mays
Method in brief: as §1

[3] = tested on: foxtail, giant; assay: Test A preemergence; type: in vivo, Setaria faberi
Method in brief: as §1

[4] = tested on: goosegrass; assay: Test A preemergence; type: in vivo, Eleusine indica
Method in brief: as §1

[5] = tested on: oat, wild; assay: Test A preemergence; type: in vivo, Avena fatua
Method in brief: as §1

[6] = tested on: pigweed, palmer; assay: Test A preemergence; type: in vivo, Amaranthus palmeri
Method in brief: as §1

[7] = tested on: ragweed; assay: Test A preemergence; type: in vivo, Ambrosia artemisiifolia
Method in brief: as §1

[8] = tested on: ryegrass, Italian; assay: Test A preemergence; type: in vivo, Lolium multiflorum
Method in brief: as §1

[9] = tested on: soybean; assay: Test A preemergence; type: in vivo, Glycine max
Method in brief: as §1

[10] = tested on: wheat; assay: Test A preemergence; type: in vivo, Triticum aestivum
Method in brief: as §1

[11] = tested on: blackgrass; assay: Test A postemergence; type: in vivo, Alopecurus myosuroides
Method in brief: as §1

[12] = tested on: corn; assay: Test A postemergence; type: in vivo, Zea mays; settings: postemergence, 10 days; for Plant response rating, Corn: visual injury, 0 to 100 scale (0 no effect, 100 complete control)
Method in brief: as §1

[13] = tested on: foxtail, giant; assay: Test A postemergence; type: in vivo, Setaria faberi; settings: postemergence, 10 days; for Plant response rating, Foxtail, Giant: visual injury, 0 to 100 scale (0 no effect, 100 complete control)
Method in brief: as §1

[14] = tested on: goosegrass; assay: Test A postemergence; type: in vivo, Eleusine indica; settings: postemergence, 10 days; for Plant response rating, Goosegrass: visual injury, 0 to 100 scale (0 no effect, 100 complete control)
Method in brief: as §1

[15] = tested on: kochia; assay: Test A postemergence; type: in vivo, Bassia scoparia; settings: postemergence, 10 days; for Plant response rating, Kochia: visual injury, 0 to 100 scale (0 no effect, 100 complete control)
Method in brief: as §1

[16] = tested on: oat, wild; assay: Test A postemergence; type: in vivo, Avena fatua; settings: postemergence, 10 days; for Plant response rating, Oat, Wild: 500 g ai/ha, visual injury, 0 to 100 scale (0 no effect, 100 complete control)
Method in brief: as §1

[17] = tested on: pigweed, palmer; assay: Test A postemergence; type: in vivo, Amaranthus palmeri; settings: postemergence, 10 days; for Plant response rating, Pigweed, Palmer: 500 g ai/ha, visual injury, 0 to 100 scale (0 no effect, 100 complete control)
Method in brief: as §1

[18] = tested on: ragweed; assay: Test A postemergence; type: in vivo, Ambrosia artemisiifolia; settings: postemergence, 10 days; for Plant response rating, Ragweed: 500 g ai/ha, visual injury, 0 to 100 scale (0 no effect, 100 complete control)
Method in brief: as §1

[19] = tested on: ryegrass, Italian; assay: Test A postemergence; type: in vivo, Lolium multiflorum; settings: postemergence, 10 days; for Plant response rating, Ryegrass, Italian: 500 g ai/ha, visual injury, 0 to 100 scale (0 no effect, 100 complete control)
Method in brief: as §1

[20] = tested on: soybean; assay: Test A postemergence; type: in vivo, Glycine max; settings: postemergence, 10 days; for Plant response rating, Soybean: 500 g ai/ha, visual injury, 0 to 100 scale (0 no effect, 100 complete control)
Method in brief: as §1

[21] = tested on: wheat; assay: Test A postemergence; type: in vivo, Triticum aestivum; settings: postemergence, 10 days; for Plant response rating, Wheat: 500 g ai/ha, visual injury, 0 to 100 scale (0 no effect, 100 complete control)
Method in brief: as §1

[22] = tested on: galium; assay: Test A postemergence; type: in vivo, Galium aparine; settings: postemergence, 10 days; for Plant response rating, Galium: visual injury, 0 to 100 scale (0 no effect, 100 complete control)
Method in brief: as §1

[23] = tested on: horseweed; assay: Test A postemergence; type: in vivo, Erigeron canadensis; settings: postemergence, 10 days; for Plant response rating, Horseweed: visual injury, 0 to 100 scale (0 no effect, 100 complete control)
Method in brief: as §1

[24] = tested on: barnyardgrass; assay: Test B flooded paddy test; type: in vivo, Echinochloa crus-galli; settings: 250 g ai/ha, Flood, 13 days, 0 to 100 scale (0 no effect, 100 complete control)
Method in brief: (§2)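 Plants at the 2-leaf stage were flooded to 3 cm above the soil, and test compounds were applied directly into the paddy water, with that depth held throughout. After 13 days in a greenhouse, injury was rated visually against untreated controls on a 0–100 scale (100 = complete control).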

[25] = tested on: ducksalad; assay: Test B flooded paddy test; type: in vivo, Heteranthera limosa; settings: 250 g ai/ha, Flood, 13 days, 0 to 100 scale (0 no effect, 100 complete control)
Method in brief: as §2

[26] = tested on: rice; assay: Test B flooded paddy test; type: in vivo, Oryza sativa; settings: 250 g ai/ha, Flood, 13 days, 0 to 100 scale (0 no effect, 100 complete control)
Method in brief: as §2

[27] = tested on: sedge, umbrella; assay: Test B flooded paddy test; type: in vivo, Cyperus difformis; settings: 250 g ai/ha, Flood, 13 days, 0 to 100 scale (0 no effect, 100 complete control)
Method in brief: as §2

[28] = tested on: kochia; assay: Test A preemergence; type: in vivo, Bassia scoparia
Method in brief: as §1

[29] = 125 g ai/ha, visual injury after 10 days, 0 to 100 scale, 0 is no effect, 100 is complete control
[30] = 500 g ai/ha, 0 to 100 scale (0 no effect, 100 complete control), 10 days
[31] = 125 g ai/ha, 0 to 100 scale, 0 no effect, 100 complete control

## C[C@H]1CN(C(=O)c2cccc(-n3cnc(CC4CCCCC4)n3)c2)c2cccc(Cl)c2O1 [Compound 90]
[1]; [29]
  Plant response rating, Blackgrass: 0
[1]; [30]
  Plant response rating, Blackgrass: 0
[2]; [29]
  Plant response rating, Corn: 0
[2]; [30]
  Plant response rating, Corn: 0
[3]; [29]
  Plant response rating, Foxtail, Giant: 0
[3]; [30]
  Plant response rating, Foxtail, Giant: 0
[4]; [29]
  Plant response rating, Goosegrass: 0
[4]; [30]
  Plant response rating, Goosegrass: 0
[5]; [29]
  Plant response rating, Oat, Wild: 0
[5]; [30]
  Plant response rating, Oat, Wild: 0
[6]; [29]
  Plant response rating, Pigweed, Palmer: 0
[6]; [30]
  Plant response rating, Pigweed, Palmer: 0
[7]; [29]
  Plant response rating, Ragweed: 0
[7]; [30]
  Plant response rating, Ragweed: 0
[8]; [29]
  Plant response rating, Ryegrass, Italian: 0
[8]; [30]
  Plant response rating, Ryegrass, Italian: 0
[9]; [29]
  Plant response rating, Soybean: 0
[9]; [30]
  Plant response rating, Soybean: 0
[10]; [29]
  Plant response rating, Wheat: 0
[10]; [30]
  Plant response rating, Wheat: 0
[11]; 125 g ai/ha, postemergence, 10 days, 0 to 100 scale, 0 no effect, 100 complete control
  Blackgrass plant response rating: 0
[11]; 500 g ai/ha, postemergence, 10 days, visual injury, 0 to 100 scale (0 no effect, 100 complete control)
  Plant response rating, Blackgrass: 0
[12]; [31]
  Corn plant response rating: 0
[12]; 500 g ai/ha
  Plant response rating, Corn: 0
[13]; [31]
  Foxtail, Giant plant response rating: 0
[13]; 500 g ai/ha
  Plant response rating, Foxtail, Giant: 0
[14]; [31]
  Goosegrass plant response rating: 0
[14]; 500 g ai/ha
  Plant response rating, Goosegrass: 0
[15]; [31]
  Kochia plant response rating: 0
[15]; 500 g ai/ha
  Plant response rating, Kochia: 20
[16]; [31]
  Oat, Wild plant response rating: 0
[16]
  Plant response rating, Oat, Wild: 0
[17]; [31]
  Pigweed, Palmer plant response rating: 0
[17]
  Plant response rating, Pigweed, Palmer: 50
[18]; [31]
  Ragweed plant response rating: 0
[18]
  Plant response rating, Ragweed: 0
[19]; [31]
  Ryegrass, Italian plant response rating: 0
[19]
  Plant response rating, Ryegrass, Italian: 0
[20]; [31]
  Soybean plant response rating: 20
[20]
  Plant response rating, Soybean: 20
[21]; [31]
  Wheat plant response rating: 10
[21]
  Plant response rating, Wheat: 10
[22]; [31]
  Galium plant response rating: 0
[22]; 500 g ai/ha
  Plant response rating, Galium: 0
[23]; [31]
  Horseweed plant response rating: 0
[23]; 500 g ai/ha
  Plant response rating, Horseweed: 0
[24]
  Plant response rating, Barnyardgrass: 0
[25]
  Plant response rating, Ducksalad: 0
[26]
  Plant response rating, Rice: 0
[27]
  Plant response rating, Sedge, Umbrella: 0

## CC(C)c1ncn(-c2cccc(C(=O)N3C[C@H](C)Oc4c(Cl)cccc43)c2)n1 [Compound 78]
[2]; [29]
  Plant response rating, Corn: 30
[2]; [30]
  Plant response rating, Corn: 30
[3]; [29]
  Plant response rating, Foxtail, Giant: 100
[3]; [30]
  Plant response rating, Foxtail, Giant: 100
[4]; [29]
  Plant response rating, Goosegrass: 90
[4]; [30]
  Plant response rating, Goosegrass: 100
[28]; [29]
  Plant response rating, Kochia: 90
[28]; [30]
  Plant response rating, Kochia: 100
[5]; [29]
  Plant response rating, Oat, Wild: 80
[5]; [30]
  Plant response rating, Oat, Wild: 90
[6]; [29]
  Plant response rating, Pigweed, Palmer: 100
[6]; [30]
  Plant response rating, Pigweed, Palmer: 100
[7]; [29]
  Plant response rating, Ragweed: 0
[7]; [30]
  Plant response rating, Ragweed: 90
[8]; [29]
  Plant response rating, Ryegrass, Italian: 90
[8]; [30]
  Plant response rating, Ryegrass, Italian: 100
[9]; [29]
  Plant response rating, Soybean: 0
[9]; [30]
  Plant response rating, Soybean: 100
[10]; [29]
  Plant response rating, Wheat: 20
[10]; [30]
  Plant response rating, Wheat: 80
[11]; 125 g ai/ha, postemergence, 10 days, visual injury, 0 to 100 scale (0 no effect, 100 complete control)
  Plant response rating, Blackgrass: 50
[11]; 500 g ai/ha, Postemergence, 0 to 100 scale
  Plant response rating, Blackgrass: 90
[12]; 125 g ai/ha
  Plant response rating, Corn: 10
[12]; 500 g ai/ha
  Plant response rating, Corn: 60
[13]; 125 g ai/ha
  Plant response rating, Foxtail, Giant: 50
[13]; 500 g ai/ha
  Plant response rating, Foxtail, Giant: 90
[14]; 125 g ai/ha
  Plant response rating, Goosegrass: 40
[14]; 500 g ai/ha
  Plant response rating, Goosegrass: 80
[15]; 125 g ai/ha
  Plant response rating, Kochia: 70
[15]; 500 g ai/ha
  Plant response rating, Kochia: 100
[16]
  Plant response rating, Oat, Wild: 90
[17]
  Plant response rating, Pigweed, Palmer: 90
[18]
  Plant response rating, Ragweed: 80
[19]
  Plant response rating, Ryegrass, Italian: 100
[20]
  Plant response rating, Soybean: 100
[21]
  Plant response rating, Wheat: 50
[22]; 125 g ai/ha
  Plant response rating, Galium: 100
[22]; 500 g ai/ha
  Plant response rating, Galium: 100
[23]; 125 g ai/ha
  Plant response rating, Horseweed: 0
[23]; 500 g ai/ha
  Plant response rating, Horseweed: 0
[24]
  Plant response rating, Barnyardgrass: 0
[25]
  Plant response rating, Ducksalad: 75
[26]
  Plant response rating, Rice: 0
[27]
  Plant response rating, Sedge, Umbrella: 0
